Measured values reported in BindingDB's records for doi:10.1021/jm960793t (Suntory, 1997).
pIC50: −log10 of the molar value.

Legend:
Cathepsin G = target: T1, Cathepsin G (Homo sapiens, UniProt P08311); test: Inhibitory activity against human neutrophil cathepsin G.
T1 sequence (P08311 whole entry): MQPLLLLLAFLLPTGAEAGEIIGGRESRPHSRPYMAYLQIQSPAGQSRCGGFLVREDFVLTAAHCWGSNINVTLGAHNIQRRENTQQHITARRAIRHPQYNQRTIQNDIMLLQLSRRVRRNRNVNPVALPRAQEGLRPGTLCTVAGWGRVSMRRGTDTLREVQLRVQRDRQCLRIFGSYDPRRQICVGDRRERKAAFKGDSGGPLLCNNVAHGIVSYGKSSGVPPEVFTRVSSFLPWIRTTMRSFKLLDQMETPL

Chymase = target: T2, Chymase (Homo sapiens, UniProt P23946); test: Inhibitory activity against human heart chymase in vitro.
T2 sequence (P23946 whole entry): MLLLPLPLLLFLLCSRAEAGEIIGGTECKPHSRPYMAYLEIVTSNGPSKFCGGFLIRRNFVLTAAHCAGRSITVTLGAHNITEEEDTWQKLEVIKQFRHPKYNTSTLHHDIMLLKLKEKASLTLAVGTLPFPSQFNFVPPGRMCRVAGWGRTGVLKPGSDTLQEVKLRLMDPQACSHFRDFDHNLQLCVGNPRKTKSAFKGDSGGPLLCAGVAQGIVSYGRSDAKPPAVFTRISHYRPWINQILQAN

pIC50 (Cathepsin G)	pIC50 (Chymase)	SMILES
< 4.00	< 4.00	O=C(OCn1c(O)cn(-c2ccccc2)c1=O)c1ccccc1 [Benzoic acid 2,5-dioxo-3-phenyl-imidazolidin-1-ylmethyl ester]
–	< 4.00	O=c1n(S(=O)(=O)c2ccc(Cl)cc2)cc(O)n1-c1ccc(Cl)cc1 [1-(4-Chloro-benzenesulfonyl)-3-(4-chloro-phenyl)-imidazolidine-2,4-dione]
